Here are results for 2 compounds from patent publication US6323001A, “Increasing the trehalose content of organisms by transforming them with combinations of the structural genes for trehalose synthase” (BTG International Ltd., priority 1994, dated 2001).

Assay [1] has as its target T1, Tre6P synthase activity of truncated trehalose synthase (Saccharomyces cerevisiae, UniProt Q00764).
T1 construct: contained the 57 kDa short chain; made in house; host or cells: baker's yeast (native enzyme, proteolytically truncated during purification)
T1 sequence (Q00764 1-495): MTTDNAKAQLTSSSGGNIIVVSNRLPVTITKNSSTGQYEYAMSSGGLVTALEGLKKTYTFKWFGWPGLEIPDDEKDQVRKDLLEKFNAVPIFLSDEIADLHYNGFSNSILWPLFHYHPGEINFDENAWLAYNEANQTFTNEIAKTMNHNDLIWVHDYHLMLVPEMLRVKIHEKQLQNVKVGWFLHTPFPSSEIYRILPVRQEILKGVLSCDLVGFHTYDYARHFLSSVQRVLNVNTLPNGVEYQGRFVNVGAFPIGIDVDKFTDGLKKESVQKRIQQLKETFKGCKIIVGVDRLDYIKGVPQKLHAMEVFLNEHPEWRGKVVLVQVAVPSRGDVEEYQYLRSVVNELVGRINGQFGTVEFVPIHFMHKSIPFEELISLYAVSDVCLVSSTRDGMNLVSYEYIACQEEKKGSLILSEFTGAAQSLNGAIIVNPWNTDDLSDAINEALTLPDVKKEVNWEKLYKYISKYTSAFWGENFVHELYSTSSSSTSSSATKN
Nature of the assay: Tre6P synthase assay of truncated trehalose synthase. The format is biochemical, baker's yeast. Conditions: 10 mM G6P, 5 mM UDPG, 5 mM F6P, without phosphate = 100%. How it is done:
(§1) With microbial materials, Tre6Pase and Tre6P synthase standard assays and other kinetic measurements were made as described by Londesborough & Vuorio [(1991) loc. cit.] except that the standard Tre6P synthase assay mixture contained 5 mM F6P unless stated otherwise.
(§2) Truncated trehalose synthase containing the short (57 kDa) chain and the 86 and 93 kDa long chain fragments was prepared according to the method of Londesborough & Vuorio (1991) loc. cit.] for proteolytically activated TPS/P complex. Tre6P synthase and Tre6Pase activities were assayed as described by Londesborough & Vuorio [(1991) loc. cit.]. [N-ethyl-1-^14C]-maleimide (ethyl-labelled NEM; 40 mCi/mmol) was NEC-454 from New England Nuclear. N-ethyl-[2,3-^14 C]-maleimide (ring-labelled NEM; 6 mCi/mmol) was CFA 293 from Amersham International. Both were obtained as solutions in n-pentane and the manufacturer's stated specific activities were assumed to be correct. Unlabelled N-ethyl-maleimide (NEM) was E-3876 from Sigma. It was dissolved in 25 mM HEPES pH 7.0 immediately before use and standardized by absorption measurements at 305 nm, assuming an E^mM of 0.62.
(§3) Truncated trehalose synthase was prepared as described by Londesborough & Vuorio [(1991) loc. cit.] and contained the 57 kDa short chain and 86 and 93 kDa fragments of the long chain. Intact trehalose synthase was prepared as in Example 1. Kinetic assays were done at 30° C. as described in General Methods and Materials.

The target in assay [2] is Tre6Pase activity of truncated trehalose synthase (Saccharomyces cerevisiae, UniProt P31688). Nature of the assay: Tre6Pase assay of truncated trehalose synthase. The format is biochemical, baker's yeast. On the procedure: as §1, §2
In one experiment, 2.0 μl of 2.4 mM ethyl-labelled NEM was mixed with 150 μl of gel-filtered enzyme and incubated at 23° C. Samples (10 μl) taken at various times up to 190 min were mixed with 60 μl of Laemmli sample buffer (the mercapto-ethanol in this buffer should destroy residual NEM), boiled for 5 min and subjected to SDS-PAGE. At closely similar times (and also at 23 h) other samples (10 μl) were mixed with 100 μl (for Tre6P synthase) or 700 μl (for Tre6Pase) of 5 mg BSA/ml 25 mM HEPES pH 7.0 containing 2 mM MgCl2, 1 mM EDTA, 0.2 M NaCl and 1 mM dithiothreitol (the dithiothreitol should destroy residual NEM) and assayed for Tre6P synthase and Tre6Pase.
as §3

Read-outs that look alike come from different tables or passages of the source.

Tre6Pase activity of truncated trehalose synthase, sequence (P31688 whole entry, one chain of several, the tested form may be a part): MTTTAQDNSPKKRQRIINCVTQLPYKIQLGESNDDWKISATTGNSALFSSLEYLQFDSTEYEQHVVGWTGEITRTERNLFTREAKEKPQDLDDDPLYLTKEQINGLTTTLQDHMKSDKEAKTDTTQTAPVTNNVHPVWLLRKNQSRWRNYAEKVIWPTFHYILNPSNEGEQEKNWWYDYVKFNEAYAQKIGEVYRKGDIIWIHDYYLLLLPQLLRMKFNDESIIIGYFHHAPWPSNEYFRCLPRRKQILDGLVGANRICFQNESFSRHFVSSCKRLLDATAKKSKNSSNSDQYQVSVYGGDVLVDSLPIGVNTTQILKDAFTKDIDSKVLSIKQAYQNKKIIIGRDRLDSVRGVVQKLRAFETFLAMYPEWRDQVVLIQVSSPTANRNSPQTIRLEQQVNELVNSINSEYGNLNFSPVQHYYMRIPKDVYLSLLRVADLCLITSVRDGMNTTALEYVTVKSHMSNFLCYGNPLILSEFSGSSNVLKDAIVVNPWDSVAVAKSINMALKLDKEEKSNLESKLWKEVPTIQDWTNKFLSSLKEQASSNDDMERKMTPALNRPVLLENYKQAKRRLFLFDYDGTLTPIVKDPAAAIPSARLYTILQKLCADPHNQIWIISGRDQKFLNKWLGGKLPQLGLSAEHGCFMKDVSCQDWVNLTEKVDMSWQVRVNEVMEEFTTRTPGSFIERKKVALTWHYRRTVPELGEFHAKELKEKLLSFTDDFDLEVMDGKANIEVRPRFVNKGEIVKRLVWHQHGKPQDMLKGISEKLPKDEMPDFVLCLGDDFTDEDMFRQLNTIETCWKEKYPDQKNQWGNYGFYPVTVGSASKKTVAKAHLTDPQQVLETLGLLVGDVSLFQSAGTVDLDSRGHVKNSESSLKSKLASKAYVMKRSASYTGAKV
Tre6Pase activity of truncated trehalose synthase, sequence (P38427 336-1098, one chain of several, further chain): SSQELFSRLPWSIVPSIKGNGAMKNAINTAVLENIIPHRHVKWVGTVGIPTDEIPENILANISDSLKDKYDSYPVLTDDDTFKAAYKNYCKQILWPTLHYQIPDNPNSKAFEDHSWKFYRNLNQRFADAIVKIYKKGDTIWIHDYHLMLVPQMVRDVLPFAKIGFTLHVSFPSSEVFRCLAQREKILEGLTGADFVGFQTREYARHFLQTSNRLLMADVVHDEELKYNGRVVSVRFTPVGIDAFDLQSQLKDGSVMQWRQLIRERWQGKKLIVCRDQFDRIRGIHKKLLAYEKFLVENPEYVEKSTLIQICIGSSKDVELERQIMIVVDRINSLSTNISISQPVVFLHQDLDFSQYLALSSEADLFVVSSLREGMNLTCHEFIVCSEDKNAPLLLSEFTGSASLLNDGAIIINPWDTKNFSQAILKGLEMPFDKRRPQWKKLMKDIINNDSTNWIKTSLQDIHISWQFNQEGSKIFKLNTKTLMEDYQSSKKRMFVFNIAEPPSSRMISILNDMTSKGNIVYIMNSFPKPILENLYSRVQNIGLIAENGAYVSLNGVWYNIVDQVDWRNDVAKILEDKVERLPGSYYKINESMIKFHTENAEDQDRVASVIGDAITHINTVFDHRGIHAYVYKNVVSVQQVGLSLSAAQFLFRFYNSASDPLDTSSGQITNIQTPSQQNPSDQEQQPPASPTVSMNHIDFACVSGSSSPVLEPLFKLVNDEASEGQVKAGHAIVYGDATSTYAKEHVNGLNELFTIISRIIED

With `O=P(O)(O)O` [phosphate, K phosphate], the “Tre6P synthase activity, Truncated Enzyme” value is 94% in assay [1] (1.3 mM added K phosphate pH 6.8) and 83% in assay [1] (4.0 mM added K phosphate pH 6.8). Also, the EC50 in assay [2] (initial rates, truncated enzyme, read-out: K1/2 of activation of Tre6Pase by phosphate) is 3 mM.
Turning to `O=C(CO)[C@@H](O)[C@H](O)[C@H](O)COP(=O)(O)O` [Transformant F6P, Fructose 6-phosphate], the inhibition at 5000 µM in assay [2] (read-out: inhibition of Tre6Pase activity, 5 mM F6P, saturating phosphate concentrations, truncated enzyme) is 10 to 15%; in assay [2] (read-out: inhibition of Tre6Pase activity, 5 mM F6P, sub-optimal phosphate concentrations, truncated enzyme) it was 20 to 30%.
